Where a name gives a salt, the structure may show the parent alone. Where only a bound is given, the exact number is not on record here.

This assay concerns platelet aggregation (platelet rich plasma (PRP)). The experiment in a line: Platelet Aggregation Assay (no esterase), platelet rich plasma. It counts as cell-based. To be noted: human platelet rich plasma (PRP), concentration inhibiting platelet aggregation by 50% relative to control. As for the experimental part:
Platelet Aggregation Assay:
venous blood was obtained from the arm of a healthy human donor who was drug-free and aspirin-free for at least two weeks prior to blood collection. Blood was collected into 10 mL citrated Vacutainer tubes. The blood was centrifuged for 15 minutes at 150×g at room temperature, and platelet-rich plasma (PRP) was removed. The remaining blood was centrifuged for 15 minutes at 1500×g at room temperature, and platelet-poor plasma (PPP) was removed. Samples were assayed on a aggregometer (PAP-4 Platelet Aggregation Profiler), using PPP as the blank (100% transmittance). […] of PRP was added to each micro test tube, and transmittance was set to 0%. 20 μL of various agonists (ADP, collagen, arachidonate, epinephrine, thrombin) were added to each tube, and the aggregation profiles were plotted (% transmittance versus time). The results are expressed as % inhibition of agonist-induced platelet aggregation. For the IC50 evaluation, the test compounds were added at various concentrations prior to the activation of the platelets.
Table A below sets forth the antiplatelet activity of representative compounds of the present invention. The indicated compounds were tested for their ability to inhibit platelet aggregation (using platelet rich plasma (PRP)). The IC50 value (the concentration of antagonist which inhibits platelet aggregation by 50% relative to a control lacking the antagonist) is shown. In Table A the IC50 values are expressed as: +++=IC50 of <1 μM; ++=IC50 of 1-50 μM; +=IC50 of 50-100 μM (μM=micromolar).
Usually IC50 stands for the point on the concentration scale where inhibition reaches its midpoint. A lower IC50 goes with greater potency. Compound `Cc1noc(C)c1S(=O)(=O)N[C@@H](CNC(=O)C[C@@H]1CC(c2ccc(C(=N)N)cc2)=NO1)C(=O)O` [N^2-(3,5-Dimethylisoxazole-4-sulfonyl)-N^3-[3-(4-amidinophenyl)isoxazolin-5(S)-ylacetyl]-(S)-2,3-diamino-propionate Trifluoroacetate Salt] showed an IC50 of less than 1000 nM. `Cc1noc(C)c1S(=O)(=O)N[C@@H](CNC(=O)C[C@H]1CC(c2ccc(C(=N)N)cc2)=NO1)C(=O)O` [N^2-(3,5-dimethylisoxazole-4-sulfonyl)-N^3-[3-(4-amidinophenyl)isoxazolin-5(R)-ylacetyl]-(S)-2,3-diaminopropionate Trifluoroacetate Salt] registered a half-maximal inhibitory concentration (IC50) of less than 1000 nM. In turn, `Cc1noc(C)c1S(=O)(=O)N[C@@H](CNC(=O)CC1CC(c2ccc(C(=N)N)cc2)=NO1)C(=O)O` (stereo partly drawn) [N^2-(3,5-dimethylisoxazole-4-sulfonyl)-N^3-[3-(4-amidinophenyl)isoxazolin-5(R,S)-ylacetyl]-(S)-2,3-diaminopropionateTrifluoroacetate Salt] yielded an IC50 of less than 1000 nM.

The record behind these values is patent US5811441A, “Isoxazoline fibrinogen receptor antagonists” (The DuPont Merck Pharmaceutical Company, priority 1997, dated 1998).
